{"source": "patent EP4806435A1", "about": "“DIHYDROCHROMENE-DERIVATIVE-CONTAINING THERAPEUTIC AGENT FOR CANCER” (Sumitomo Pharma Co., Ltd., priority 2023, dated 2025)", "key": {"U-87 cells": {"test_system": "U-87 cells", "assay": "Cytotoxicity assay of metabolites under sphere culture conditions (ATP)", "type": "cell-based", "conditions": "Homo sapiens, U-87 MG, 168 h, 7 days in sphere medium, read-out: IC50 (cytotoxicity, cell viability by ATP)", "experimental": "U-87 cells were cultured for 7 days in sphere medium in the presence of metabolites M2, M4, and M5, respectively. After culture, cellular ATP levels were quantified as an indicator of cell viability, and cell viability was calculated in the same manner as in Example 12 to compare cytotoxicity."}, "[1]": {"test_system": "U-87 cells (IDH1 wild-type)", "assay": "Cytotoxicity, sphere culture with LDL, combination with ezetimibe (ATP)", "type": "cell-based, human", "conditions": "ezetimibe at 3.3, 10, or 30 µM; 7 days; LDL 5 µg/mL", "experimental": "U-87 cells were cultured for 7 days in sphere medium supplemented with LDL at a concentration of 5 µg/mL, with either ezetimibe (a cholesterol absorption inhibitor) added at 3.3, 10, or 30 µM, Compound 1 added at 1 µM, or a combination of both agents. Cell viability was calculated in the same manner as in Example 12, and the cytotoxic effects of each treatment were compared between single-agent and combination conditions."}, "mouse": {"test_system": "mouse", "assay": "4-week mouse toxicity study (GLP)", "type": "in vivo", "experimental": "(§1) The initial starting dose of 20 mg/day (expressed as the present compound) was determined in accordance with the ICH S9 guideline of International Council for Harmonisation of Technical Requirements for Pharmaceuticals for Human Use (ICH). Based on a 4-week mouse toxicity study conducted in compliance with Good Laboratory Practice (GLP), the dose causing severe toxicity in 10% of the test animals (STD10) was determined to be 50 mg/kg. Applying a safety factor of 10 and interspecies scaling, the starting dose for this first-in-human (FIH) study was calculated to be 0.4 mg/kg, corresponding to a fixed dose of 24 mg for a 60-kg human. In a 4-week non-human primate toxicity study conducted in compliance with Good Laboratory Practice (GLP), the highest non-severely toxic dose (HNSTD) was determined to be 7.5 mg/kg. Applying a safety factor of 6 and interspecies scaling, the starting dose in humans was estimated to be 0.4 mg/kg, corresponding to a fixed dose of 24 mg. The final recommended starting dose for the first-in-human (FIH) study was rounded to 20 mg/day."}, "U-87 GBM xenografts": {"test_system": "U-87 GBM xenografts", "assay": "Tumor shrinkage in mice bearing U-87 GBM xenografts", "type": "in vivo"}, "non-human primate": {"test_system": "non-human primate", "assay": "4-week non-human primate toxicity study (GLP)", "type": "in vivo", "experimental": "as §1"}}, "data": [{"smiles": "CC1(C)Oc2cc(Cl)ccc2[C@@H]2OCC3(CCN(CCNC(=O)CNC=O)CC3)C[C@H]21", "note": "[Compound M2, N-2-[(4'aR,10'bR)-8'-chloro-5',5'-dimethyl-4'a,10'b-dihydro-2'H,4'H,5'H-spiro[piperidine-4,3'-pyrano[3,2-c][1]benzopyran]-1-yl]ethyl-N^2-formylglycinamide]", "values": [{"measurement": "IC50", "setting": "U-87 cells", "value": 3600, "unit": "nM"}]}, {"smiles": "CC1(C)Oc2cc(Cl)ccc2[C@@H]2OCC3(CCNCC3)C[C@H]21", "note": "[Compound M4]", "values": [{"measurement": "IC50", "setting": "U-87 cells", "value": 1600, "unit": "nM"}]}, {"smiles": "CC1(C)Oc2cc(Cl)ccc2[C@@H]2OCC3(CCN(CCO)CC3)C[C@H]21", "note": "[Compound M5, 2-[(4'aR,10'bR)-8'-chloro-5',5'-dimethyl-4'a,10'b-dihydro-2'H,4'H,5'H-spiro[piperidine-4,3'-pyrano[3,2-c][1]benzopyran]-1-yl]ethan-1-ol]", "values": [{"measurement": "IC50", "setting": "U-87 cells", "value": 2100, "unit": "nM"}]}, {"smiles": "O=C1[C@H](CC[C@H](O)c2ccc(F)cc2)[C@@H](c2ccc(O)cc2)N1c1ccc(F)cc1", "note": "[ezetimibe, reference compound]", "values": [{"measurement": "cytotoxicity, single agent", "setting": "[1]", "value": "low cytotoxicity"}]}, {"smiles": "CC1(C)Oc2cc(Cl)ccc2[C@@H]2OCC3(CCN(CCn4ccnc4)CC3)C[C@H]21", "note": "[the present compound, (4'aR,10'bR)-8'-chloro-1-[2-(1H-imidazol-1-yl)ethyl]-5',5'-dimethyl-4'a,10'b-dihydro-2'H,4'H,5'H-spiro[piperidine-4,3'-pyrano[3,2-c][1]benzopyran]]", "values": [{"measurement": "dose causing severe toxicity in 10% of the test animals (STD10)", "setting": "mouse", "value": 50, "unit": "mg/kg"}, {"measurement": "minimum pharmacologically active dose in humans (human equivalent dose, HED)", "setting": "U-87 GBM xenografts; HED of 3 mg/kg in mice bearing U-87 GBM xenografts", "value": 15, "unit": "mg"}, {"measurement": "dose at which a consistent tumor shrinkage effect was observed", "setting": "U-87 GBM xenografts; mice bearing U-87 GBM xenografts", "value": 3, "unit": "mg/kg"}, {"measurement": "highest non-severely toxic dose (HNSTD)", "setting": "non-human primate", "value": 7.5, "unit": "mg/kg"}]}]}
